Reference: ChEMBL document CHEMBL5647688, “Mitogen-activated protein kinase (MEK/ERK) inhibition sensitizes cancer cells to centromere-associated protein E inhibition” (Int J Cancer, 2013)

Tests used:
Assay type in all cases: functional
NB-1691 = assay: Synergistic cytotoxicity against human NB-1691 cells assessed as combination index at ED 75 measured after 72 hrs in presence of temozolomide and SN-38 by Cell-titer Glo reagent assay
SK-N-FI [1] = assay: Synergistic cytotoxicity against human SK-N-FI cells assessed as combination index at ED 75 measured after 72 hrs in presence of temozolomide by Cell-titer Glo reagent assay
SK-N-FI [2] = assay: Synergistic cytotoxicity against human SK-N-FI cells assessed as combination index at ED 50 measured after 72 hrs in presence of sequential treatment of […] inhibitor CI-1040 by Cell-titer Glo reagent assay
NCI-H23 = assay: Synergistic cytotoxicity against human NCI-H23 cells assessed as combination index at ED 50 measured after 72 hrs in presence of MEK inhibitor GSK1120212 by Cell-titer Glo reagent assay
ASPC1 = assay: Synergistic cytotoxicity against human ASPC1 cells assessed as combination index at ED 50 measured after 72 hrs in presence of MEK inhibitor GSK1120212 by Cell-titer Glo reagent assay
SW48 = assay: Synergistic cytotoxicity against human SW48 cells assessed as combination index at ED 50 measured after 72 hrs in presence of MEK inhibitor GSK1120212 by Cell-titer Glo reagent assay
SW-620 = assay: Synergistic cytotoxicity against human SW620 cells expressing KRAS mutant assessed as combination index at ED 50 measured after 72 hrs in presence of MEK inhibitor GSK1120212 by Cell-titer Glo reagent assay
HCT-116 [3] = assay: Synergistic cytotoxicity against human HCT-116 cells expressing KRAS mutant assessed as combination index at ED 50 measured after 72 hrs in presence of MEK inhibitor GSK1120212 by Cell-titer Glo reagent assay
NCI-H1299 = assay: Synergistic cytotoxicity against human NCI-H1299 cells expressing NRAS mutant assessed as combination index at ED75 measured after 72 hrs in presence of MEK inhibitor GSK1120212 by Cell-titer Glo reagent assay
NCI-H1792 = assay: Synergistic cytotoxicity against human NCI-H1792 cells expressing KRAS mutant assessed as combination index at ED75 measured after 72 hrs in presence of MEK inhibitor GSK1120212 by Cell-titer Glo reagent assay
SW1990 = assay: Synergistic cytotoxicity against human SW1990 cells expressing KRAS mutant assessed as combination index at ED75 measured after 72 hrs in presence of MEK inhibitor GSK1120212 by Cell-titer Glo reagent assay
HCT-116 [4] = assay: Synergistic cytotoxicity against human HCT-116 cells expressing KRAS mutant assessed as combination index at ED75 measured after 72 hrs in presence of MEK inhibitor GSK1120212 by Cell-titer Glo reagent assay

Compound: CC(C)Oc1ccc(C(=O)N[C@H](CNC(=O)CN(C)C)Cc2ccc(-c3cn4cccc([C@H](C)O)c4n3)cc2)cc1Cl [GSK-923295A]
- CI (NB-1691): 0.3
- CI (SK-N-FI [1]): 0.94
- CI (SK-N-FI [2]): 0.834
- CI (NCI-H23): 0.259
- CI (ASPC1): 0.566
- CI (SW48): 0.36
- CI (SW-620): 0.521
- CI (HCT-116 [3]): 0.695
- CI (NCI-H1299): 0.511
- CI (NCI-H1792): 0.482
- CI (SW1990): 0.103
- CI (HCT-116 [4]): 0.384
